Experimental data reported in patent publication EP1060748A1, “REMEDIES FOR CORNEAL EPITHELIUM DISTURBANCE” (Wakamoto Pharmaceutical Co., Ltd., priority 1998, dated 1999).
Structures can show the parent of a compound that is named as a salt.

System: human corneal epithelial cell line HCEC
Assay: Protection against UV-C-induced human corneal epithelial cell damage, viable cell count
Type: cell-based
Conditions: Table 8-2, UV-C 5 seconds
Experimental: Human corneal epithelial cell line HCEC was suspended in 10% fetal bovine serum-SHEM modified medium at a concentration of 1×10^5 cells/ml and 500 µl of this cell suspension was seeded into each well of a 24-multiwell plate (Corning). The cells were cultured in a 5% CO2 incubator at 37°C for 16 to 17 hours. Then, the culture supernatant was thoroughly removed and 500 µl of 10% fetal bovine serum-SHEM modified medium containing a test sample was added to each well. The cells were cultured under the same conditions as above for a further two hours. After completion of culture in contact with the sample, the culture supernatant was removed thoroughly so that there would be substantially no residue of the sample in the multiwell plate. The multiwell plate in this condition was irradiated with UV-C, the ultraviolet light with a maximum lethal power, at a distance of 20 to 30 cm for 5 seconds. After UV-C irradiation, 500 µl/well of 10% fetal bovine serum-SHEM modified medium containing the same sample as above was added again and the cells were cultured under the same conditions as above for 16 to 17 hours. Then, the supernatant was discarded from each well and 100 µl of an excision solution (PBS containing 0.25% trypsin (w/v) and 0.02% EDTA) was added. The plate was then incubated in a 5% CO2 incubator at 37 °C for 6 minutes. After this incubation, the viable epithelial cells were thoroughly detached and dispersed by pipetting and stained with 100 µl of 0.1% (w/v) trypan blue staining solution, and immediately the viable cells were counted with a hemocytometer. The protective effect of the sample against UV-induced human corneal epithelial cell damage was evaluated by the following computation. Protective effect (%) = (number of viable cells in sample-added group ÷ number of viable cells in sample-free group) × 100 [formula]

Structure (SMILES)	Protective effect (%) (2 mM)	Protective effect (%) (20 µM)
CC(=O)N(O)CCCCCNC(=O)CCC(=O)N(O)CCCCCNC(=O)CCC(=O)N(O)CCCCCN [Deferoxamine mesylate]	94%	–
N[C@@H](CCC(=O)N[C@@H](CS)C(=O)NCC(=O)O)C(=O)O [Glutathione]	95%	–
CC(=O)Oc1c(C)c(C)c2c(c1C)CCC(C)(CCCC(C)CCCC(C)CCCC(C)C)O2 (racemic) [Vitamin E, DL-α-tocopherol acetate]	–	107%
O=C1O[C@H]([C@@H](O)CO)C(O)=C1O [Vitamin C, ascorbic acid]	104%	–
N[C@@H](CS)C(=O)O [Cysteine]	46%	–
